From ChEMBL document CHEMBL4118088, “C5-C6 Carbocyclic-Fused Iminothiadiazine Dioxides as BACE Inhibitors, Their Compositions, and Their Use” (ACS Med Chem Lett, 2017)

Assays:
Beta-secretase 1 = Beta-secretase 1 (Homo sapiens, UniProt P56817); assay: Binding affinity to human BACE1 catalytic domain using QSY7-APPswe-Eu as substrate preincubated for 30 mins followed by substrate addition measured after 1.5 hrs by HTRF assay
Beta-secretase 2 = biological target: T1, Beta-secretase 2 (Homo sapiens, UniProt Q9Y5Z0); assay: Binding affinity to human autoBACE2 using QSY7-APPswe-Eu as substrate preincubated for 30 mins followed by substrate addition measured after 90 mins by HTRF assay
T1 sequence (Q9Y5Z0 whole entry): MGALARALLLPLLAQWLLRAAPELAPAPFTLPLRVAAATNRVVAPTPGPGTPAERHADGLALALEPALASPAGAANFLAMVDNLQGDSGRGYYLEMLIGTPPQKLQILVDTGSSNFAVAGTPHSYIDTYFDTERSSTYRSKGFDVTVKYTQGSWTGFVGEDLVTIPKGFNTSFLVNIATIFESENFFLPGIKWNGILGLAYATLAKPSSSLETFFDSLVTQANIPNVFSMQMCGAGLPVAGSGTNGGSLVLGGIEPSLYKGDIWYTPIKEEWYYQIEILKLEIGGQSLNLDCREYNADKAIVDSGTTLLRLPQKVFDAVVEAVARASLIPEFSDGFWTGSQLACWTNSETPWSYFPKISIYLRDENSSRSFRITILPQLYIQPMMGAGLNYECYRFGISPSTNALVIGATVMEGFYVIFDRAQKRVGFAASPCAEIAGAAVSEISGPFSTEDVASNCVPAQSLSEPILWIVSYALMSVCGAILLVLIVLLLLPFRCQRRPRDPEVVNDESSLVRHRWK

Beta-secretase 1, sequence (P56817 whole entry, the tested form may be a part): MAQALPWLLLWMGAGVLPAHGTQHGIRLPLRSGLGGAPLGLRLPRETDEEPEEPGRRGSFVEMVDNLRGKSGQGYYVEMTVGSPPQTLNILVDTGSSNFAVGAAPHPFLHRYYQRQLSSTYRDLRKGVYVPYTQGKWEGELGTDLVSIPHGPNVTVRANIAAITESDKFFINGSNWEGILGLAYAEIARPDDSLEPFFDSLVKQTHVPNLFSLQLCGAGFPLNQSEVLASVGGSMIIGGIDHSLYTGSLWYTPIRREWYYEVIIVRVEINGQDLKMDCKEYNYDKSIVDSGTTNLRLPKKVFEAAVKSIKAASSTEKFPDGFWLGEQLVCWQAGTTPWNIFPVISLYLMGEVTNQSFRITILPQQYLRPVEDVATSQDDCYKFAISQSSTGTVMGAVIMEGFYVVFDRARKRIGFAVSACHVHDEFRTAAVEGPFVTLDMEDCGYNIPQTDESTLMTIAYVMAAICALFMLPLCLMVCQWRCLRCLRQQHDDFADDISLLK

Row | SMILES | Ki (Beta-secretase 1) [nM] | Ki (Beta-secretase 2) [nM]
1 | COc1cnc2c(C(=O)Nc3ccc(F)c([C@]45CCC[C@H]4S(=O)(=O)N(C)C(=N)N5)c3)ccnc2c1 | 206 | 198
2 | COc1cnc2c(C(=O)Nc3ccc(F)c([C@]45CCC[C@H]4S(=O)(=O)N(C)C(=N)N5)c3)nccc2c1 | 31 | 10
3 | COc1cnc2c(C(=O)Nc3ccc(F)c([C@]45CCC[C@H]4S(=O)(=O)N(C)C(=N)N5)c3)nccc2n1 | 36 | 9
4 | CN1C(=N)N[C@@]2(c3cc(NC(=O)c4nccc5cc(Br)cnc45)ccc3F)CCC[C@H]2S1(=O)=O | 4 | 0.5
